Source: patent US10428080B2, “TBK/IKK inhibitor compounds and uses thereof” (Merck Patent GmbH, priority 2015, dated 2019)
Counter-ions that a name gives are not always drawn. Like-named read-outs stand apart in the source and are kept apart here.

Columns and labels:
IKKε = molecular target: T1, IKKε (Homo sapiens, UniProt Q14164); experiment: IKKe Biochemical Assay; conditions: read-out: IKKε IC50
T1 sequence (Q14164 1-716): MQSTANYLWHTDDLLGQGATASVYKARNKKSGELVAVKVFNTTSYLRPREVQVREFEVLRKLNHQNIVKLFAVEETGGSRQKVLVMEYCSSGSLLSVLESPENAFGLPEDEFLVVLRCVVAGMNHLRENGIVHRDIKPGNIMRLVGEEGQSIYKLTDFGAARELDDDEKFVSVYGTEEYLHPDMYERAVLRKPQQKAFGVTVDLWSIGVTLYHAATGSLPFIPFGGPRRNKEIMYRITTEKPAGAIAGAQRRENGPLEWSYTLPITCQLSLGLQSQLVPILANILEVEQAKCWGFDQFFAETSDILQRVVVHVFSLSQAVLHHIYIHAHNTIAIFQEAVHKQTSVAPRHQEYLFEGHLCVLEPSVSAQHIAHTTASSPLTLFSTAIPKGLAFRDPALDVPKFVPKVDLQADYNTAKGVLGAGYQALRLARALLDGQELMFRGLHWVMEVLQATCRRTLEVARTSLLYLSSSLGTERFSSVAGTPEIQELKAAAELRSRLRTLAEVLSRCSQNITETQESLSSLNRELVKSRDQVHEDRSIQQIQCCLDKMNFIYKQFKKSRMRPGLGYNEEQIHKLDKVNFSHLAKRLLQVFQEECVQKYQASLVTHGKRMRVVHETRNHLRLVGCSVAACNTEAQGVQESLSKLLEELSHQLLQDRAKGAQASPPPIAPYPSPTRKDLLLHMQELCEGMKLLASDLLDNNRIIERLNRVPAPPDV
Procedure, shortened: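 Activity was measured as mobility-shift separation of phosphorylated from unphosphorylated substrate on a LabChip EZ Reader. Compound was titrated from 30 uM final in 10 points, 1:4 steps, with 1% DMSO, and enzyme plus substrate reacted 90 min at 25° C before stop buffer. Control wells held 10 uM staurosporine.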

TBK1 = molecular target: T2, TBK1 (Homo sapiens, UniProt Q9UHD2); experiment: TBK Biochemical Assay; conditions: read-out: TBK1 IC50
T2 sequence (Q9UHD2 1-729): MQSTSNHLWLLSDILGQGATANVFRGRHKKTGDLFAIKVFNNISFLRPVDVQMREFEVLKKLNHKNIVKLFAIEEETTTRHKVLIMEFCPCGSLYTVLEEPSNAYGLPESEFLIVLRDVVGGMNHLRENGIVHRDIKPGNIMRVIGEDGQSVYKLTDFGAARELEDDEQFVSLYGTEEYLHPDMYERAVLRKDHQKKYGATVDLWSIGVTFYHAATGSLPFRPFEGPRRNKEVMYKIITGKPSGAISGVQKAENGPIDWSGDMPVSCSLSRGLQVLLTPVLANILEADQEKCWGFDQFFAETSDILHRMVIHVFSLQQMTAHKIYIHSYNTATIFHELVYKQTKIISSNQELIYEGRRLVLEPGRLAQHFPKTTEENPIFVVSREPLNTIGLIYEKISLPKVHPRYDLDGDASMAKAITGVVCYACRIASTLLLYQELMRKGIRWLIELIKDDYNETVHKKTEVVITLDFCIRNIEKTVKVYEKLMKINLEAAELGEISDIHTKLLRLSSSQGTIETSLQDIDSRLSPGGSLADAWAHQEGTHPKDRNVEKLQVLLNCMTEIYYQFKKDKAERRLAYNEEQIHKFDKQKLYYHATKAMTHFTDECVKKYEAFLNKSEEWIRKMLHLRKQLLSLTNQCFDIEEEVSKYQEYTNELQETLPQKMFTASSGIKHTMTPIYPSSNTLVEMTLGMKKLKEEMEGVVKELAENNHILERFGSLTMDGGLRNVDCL
Procedure, shortened: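 Caliper LabChip mobility-shift readout of substrate and product after 90 min of TBK1 reaction at 25° C and stop-buffer addition. Compounds tested in 1:4 serial dilution over 10 points from 30 uM final at 1% DMSO; staurosporine 10 uM final defines full inhibition.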

[1] = system: phosphorylation of the IRF-3 protein in MDA-MB-468 cells; experiment: pIRF3 immunocytochemistry cell based assay; conditions: MDA-MB-468 cells, Poly(I:C) stimulation, read-out: pIRF3 IC50
Procedure, shortened: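 After 2 h stimulation with Poly(I:C) (10 ug/ml), following 1 h compound pre-treatment (10-point, 3-fold dilution, top 10 uM), MDA-MB-468 cells were fixed and stained with anti-pIRF3 antibody. pIRF3 fluorescence was normalized to PI staining or cell count on an Acumen cytometer. IC50 curves were derived from this.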

SMILES	IC50 (IKKε) [nM]	IC50 (TBK1) [nM]	IC50 ([1]; Homo sapiens) [nM]	IC50 [1] [nM]
COc1cc(C(=O)NC2CN3CCC2CC3)ccc1-c1cc2nccc(-c3ccc(N4CC[C@H](F)C4)c(C#N)c3)c2o1 (stereo partly drawn) [Compound 72, N-(1-Aza-bicyclo[2.2.2]oct-3-yl)-4-{7-[3-cyano-4-((S)-3-fluoro-pyrrolidin-1-yl)-phenyl]-furo[3,2-b]pyridin-2-yl}-3-methoxy-benzamide]	< 100	< 100	100 to 1000	
COc1cc(C(=O)N(C)C)ncc1-c1cc2nccc(-c3ccc(N4CCC(F)C4)c(C#N)c3)c2o1 (stereo in doubt) [Compound 389, 5-{7-[3-Cyano-4-((S)-3-fluoro-pyrrolidin-1-yl)-phenyl]-furo[3,2-b]pyridin-2-yl}-4-methoxy-pyridine-2-carboxylic acid dimethylamide]	< 100	< 100	100 to 1000	
COc1cc(C(=O)N[C@H]2CCN(C)C2)ccc1-c1cc2nccc(-c3ccc(OC4CCOCC4)c(C#N)c3)c2o1 [Compound 493, 5-{2-[4-(N—((S)-methyl-pyrrolidin-3-yl)-1-carbonyl)-2-methoxy-phenyl]-furo[3,2-b]pyridin-7-yl}-2-(tetrahydro-pyran-4-yloxy)-benzonitrile]	< 100	< 100	100 to 1000	
COc1cc(C(=O)NC2(C#N)CCN(C)C2)ccc1-c1cc2nccc(-c3ccc(OC4CCOCC4)c(C#N)c3)c2o1 (stereo not drawn) [Compound 349, N-(3-cyano-1-methylpyrrolidin-3-yl)-4-[7-[3-cyano-4-(oxan-4-yloxy)phenyl]furo[3,2-b]pyridin-2-yl]-3-methoxybenzamide]	< 100	< 100	100 to 1000	
COc1cc(C(=O)N2C[C@H]3C[C@@H](O)C[C@H]3C2)ccc1-c1cc2nccc(-c3ccc(OC4CCOCC4)c(C#N)c3)c2o1 [Compound 32, 5-{2-[4-((3aR,5R,6aS)-5-Hydroxy-hexahydro-cyclopenta[c]pyrrole-2-carbonyl)-2-methoxy-phenyl]-furo[3,2-b]pyridin-7-yl}-2-(tetrahydro-pyran-4-yloxy)-benzonitrile]	< 100	< 100	< 100	
COc1cc(C(=O)N2C3CCCC2CC3)ccc1-c1cc2nccc(-c3ccc(NC4CCOCC4)c(C#N)c3)c2o1 [Compound 519]	< 100	< 100	100 to 1000	
COc1nc(C(=O)N(C)C)ccc1-c1cc2nccc(-c3ccc(N4CC[C@@H](F)C4)c(C#N)c3)c2o1 [Compound 313, 5-{7-[3-Cyano-4-((R)-3-fluoro-pyrrolidin-1-yl)-phenyl]-furo[3,2-b]pyridin-2-yl}-6-methoxy-pyridine-2-carboxylic acid dimethylamide]	< 100	< 100	100 to 1000	
COc1cc(C(=O)N2CCCCC2)ccc1-c1cc2nccc(-c3ccc(OC4CCOCC4)c(C#N)c3)c2o1 [Compound 27, 5-{2-[2-Methoxy-4-(piperidine-1-carbonyl)-phenyl]-furo[3,2-b]pyridin-7-yl}-2-(tetrahydro-pyran-4-yloxy)-benzonitrile]	< 100	< 100	100 to 1000	
COc1cc(C(=O)NN)ccc1-c1cc2nccc(-c3ccc(OC4CCOCC4)c(C#N)c3)c2o1 [Compound 110, 4-{7-[3-Cyano-4-(tetrahydro-pyran-4-yloxy)-phenyl]-furo[3,2-b]pyridin-2-yl}-3-methoxy-benzoic acid hydrazide]	< 100	< 100	100 to 1000	
COc1cc(C(=O)N2CCN(CCO)CC2)ccc1-c1cc2nccc(-c3ccc(OC4CCOCC4)c(C#N)c3)c2o1 [Compound 13, 5-(2-{4-[4-(2-Hydroxy-ethyl)-piperazine-1-carbonyl]-2-methoxy-phenyl}-furo[3,2-b]pyridin-7-yl)-2-(tetrahydro-pyran-4-yloxy)-benzonitrile]	< 100	< 100	< 100	
COc1cc(C(=O)N(C)CCO)cnc1-c1cc2nccc(-c3ccc(NC4CCOCC4)c(C#N)c3)c2o1 [Compound 318, 6-(7-(3-cyano-4-(tetrahydro-2H-pyran-4-ylamino)phenyl)furo[3,2-b]pyridin-2-yl)-N-(2-hydroxyethyl)-5-methoxy-N-methylnicotinamide]	< 100	< 100	100 to 1000	
COc1cc(C(=O)NCC(C)(C)CN(C)C)ccc1-c1cc2nccc(-c3ccc(OC4CCOCC4)c(C#N)c3)c2o1 [Compound 506, 4-{7-[3-Cyano-4-(tetrahydro-pyran-4-yloxy)-phenyl]-furo[3,2-b]pyridin-2-yl}-N-(3-dimethylamino-2,2-dimethyl-propyl)-3-methoxy-benzamide]	< 100	< 100	100 to 1000	
COc1cc(C(=O)N(C)C)ccc1-c1cc2nccc(-c3ccc(NC4CCOC4)c(C#N)c3)c2o1 (stereo not drawn) [Compound 7]	< 100	< 100	100 to 1000	
COc1cc(C(=O)NC2CN3CCC2CC3)cnc1-c1cc2nccc(-c3ccc(N4CC[C@@H](F)C4)c(C#N)c3)c2o1 (stereo partly drawn) [Compound 440, N—(S)-1-Aza-bicyclo[2.20.2]oct-3-yl-6-{7-[3-cyano-4-((R)-3-fluoro-pyrrolidin-1-yl)-phenyl]-furo[3,2-b]pyridin-2-yl}-5-methoxy-nicotinamide]	< 100	< 100	100 to 1000	
COc1cc(C(=O)N[C@H]2CCCC[C@H]2O)ccc1-c1cc2nccc(-c3ccc(OC4CCOCC4)c(C#N)c3)c2o1 [Compound 476, 4-{7-[3-Cyano-4-(tetrahydro-pyran-4-yloxy)-phenyl]-furo[3,2-b]pyridin-2-yl}-N-((1S,2R)-2-hydroxy-cyclohexyl)-3-methoxy-benzamide]	< 100	< 100	100 to 1000	
COc1cc(C(=O)NC2C3COCC32)cnc1-c1cc2nccc(-c3ccc(N4CC[C@H](F)C4)c(C#N)c3)c2o1 (stereo partly drawn) [Compound 467, 6-{7-[3-Cyano-4-((S)-3-fluoro-pyrrolidin-1-yl)-phenyl]-furo[3,2-b]pyridin-2-yl}-5-methoxy-N-(3-oxa-bicyclo[3.1.0]hex-6-yl)-nicotinamide]	< 100	< 100		100 to 1000
COc1cc(C(=O)N2CC3CCC2CN3C)cnc1-c1cc2nccc(-c3ccc(OC4CCOCC4)c(C#N)c3)c2o1 (stereo not drawn) [Compound 406, 5-[2-[3-methoxy-5-(([5-methyl-2,5-diazabicyclo[2.2.2]octan-2-yl]carbonyl)pyridin-2-yl]furo[3,2-b]pyridin-7-yl]-2-(oxan-4-yloxy)benzonitrile hydrochloride]	< 100	< 100	< 100	
N#Cc1cc(-c2ccnc3cc(-c4ccc(C(=O)NC5CN6CCC5CC6)cc4)oc23)ccc1OC1CCCOC1 (stereo not drawn) [Compound 171]	100 to 1000	100 to 1000	100 to 1000	
COc1cc(C(=O)N2CC3CCC2CO3)ncc1-c1cc2nccc(-c3ccc(OC4CCOCC4)c(C#N)c3)c2o1 (stereo not drawn) [Compound 413, 5-[2-[4-methoxy-6-([2-oxa-5-azabicyclo[2.2.2]octan-5-yl]carbonyl)pyridin-3-yl]furo[3,2-b]pyridin-7-yl]-2-(oxan-4-yloxy)benzonitrile hydrochloride]	< 100	< 100	100 to 1000	
